Results as given in US9695155B2, “Herbicidal substituted pyrimidinyloxy benzene compounds” (E. I. DU PONT DE NEMOURS AND COMPANY, priority 2013, dated 2017).

Experiments:
rice = test: Test B flooded paddy test; assay type: in vivo, Oryza sativa; conditions: Flood, 250 g ai/ha; 0 to 100 scale where 0 is no effect and 100 is complete control
Procedure, shortened: (§1)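 Plants at 2-leaf stage; pots flooded to 3 cm above soil and compound applied directly into paddy water, depth held throughout. After 13 to 15 days in greenhouse, visual rating versus controls on 0 (no effect) to 100 (complete control) scale.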

barnyardgrass [1] = test: Test B flooded paddy test; assay type: in vivo, Echinochloa crus-galli; conditions: Flood, 250 g ai/ha; 0 to 100 scale where 0 is no effect and 100 is complete control
Procedure, shortened: as §1

giant foxtail [2] = test: Test A preemergence; assay type: in vivo, Setaria faberii; conditions: for Foxtail, Giant plant response rating: 500 g ai/ha
Procedure, shortened: (§2)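 Injury scores run from 0, no effect, to 100, complete control, judged by eye against untreated plants roughly 10 days after treatment. Chemicals carried a surfactant in a non-phytotoxic solvent and went onto loam–sand soil preemergence or onto one- to two-leaf seedlings postemergence.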

morningglory [3] = test: Test A preemergence; assay type: in vivo, Ipomoea spp.; conditions: for Morningglory plant response rating (0 to 100 scale): 125 g ai/ha; for Morningglory plant response rating: 500 g ai/ha, 0 to 100 scale where 0 is no effect and 100 is complete control
Procedure, shortened: as §2

large (Lg) crabgrass [4] = test: Test A preemergence; assay type: in vivo, Digitaria sanguinalis; conditions: for Crabgrass, Large plant response rating: 500 g ai/ha
Procedure, shortened: as §2

wheat [5] = test: Test A preemergence; assay type: in vivo, Triticum aestivum; conditions: for Wheat plant response rating (0 to 100 scale): 125 g ai/ha; for Wheat plant response rating: 500 g ai/ha, 0 to 100 scale where 0 is no effect and 100 is complete control
Procedure, shortened: as §2

wheat [6] = test: Test A postemergence; assay type: in vivo, Triticum aestivum; conditions: 0 to 100 scale where 0 is no effect and 100 is complete control; for Wheat plant response rating: 125 g ai/ha; for Plant response rating, Wheat: 500 g ai/ha
Procedure, shortened: as §2

velvetleaf [7] = test: Test A preemergence; assay type: in vivo, Abutilon theophrasti; conditions: for Velvetleaf plant response rating (0 to 100 scale): 125 g ai/ha; for Velvetleaf plant response rating: 500 g ai/ha, 0 to 100 scale where 0 is no effect and 100 is complete control
Procedure, shortened: as §2

pigweed [8] = test: Test A preemergence; assay type: in vivo, Amaranthus retroflexus; conditions: for Pigweed plant response rating (0 to 100 scale): 125 g ai/ha; for Pigweed plant response rating: 500 g ai/ha, 0 to 100 scale where 0 is no effect and 100 is complete control
Procedure, shortened: as §2

velvetleaf [9] = test: Test A postemergence; assay type: in vivo, Abutilon theophrasti; conditions: 0 to 100 scale where 0 is no effect and 100 is complete control; for Velvetleaf plant response rating: 125 g ai/ha; for Plant response rating, Velvetleaf: 500 g ai/ha
Procedure, shortened: as §2

barnyardgrass [10] = test: Test A postemergence; assay type: in vivo, Echinochloa crus-galli; conditions: 0 to 100 scale where 0 is no effect and 100 is complete control; for Barnyardgrass plant response rating: 125 g ai/ha; for Plant response rating, Barnyardgrass: 500 g ai/ha
Procedure, shortened: as §2

corn [11] = test: Test A postemergence; assay type: in vivo, Zea mays; conditions: 0 to 100 scale where 0 is no effect and 100 is complete control; for Corn plant response rating: 125 g ai/ha; for Plant response rating, Corn: 500 g ai/ha
Procedure, shortened: as §2

corn [12] = test: Test A preemergence; assay type: in vivo, Zea mays; conditions: for Corn plant response rating: 500 g ai/ha
Procedure, shortened: as §2

barnyardgrass [13] = test: Test A preemergence; assay type: in vivo, Echinochloa crus-galli; conditions: for Barnyardgrass plant response rating: 500 g ai/ha
Procedure, shortened: as §2

giant foxtail [14] = test: Test A postemergence; assay type: in vivo, Setaria faberii; conditions: 0 to 100 scale where 0 is no effect and 100 is complete control; for Foxtail, Giant plant response rating: 125 g ai/ha; for Plant response rating, Foxtail, Giant: 500 g ai/ha
Procedure, shortened: as §2

Heteranthera limosa = test: Test B flooded paddy test; assay type: in vivo; conditions: Flood, 250 g ai/ha; 0 to 100 scale where 0 is no effect and 100 is complete control
Procedure, shortened: as §1

sedge, umbrella = test: Test B flooded paddy test; assay type: in vivo, Cyperus difformis; conditions: Flood, 250 g ai/ha; 0 to 100 scale where 0 is no effect and 100 is complete control
Procedure, shortened: as §1

large (Lg) crabgrass [15] = test: Test A postemergence; assay type: in vivo, Digitaria sanguinalis; conditions: 0 to 100 scale where 0 is no effect and 100 is complete control; for Crabgrass, Large plant response rating: 125 g ai/ha; for Plant response rating, Crabgrass, Large: 500 g ai/ha
Procedure, shortened: as §2

morningglory [16] = test: Test A postemergence; assay type: in vivo, Ipomoea spp.; conditions: 0 to 100 scale where 0 is no effect and 100 is complete control; for Morningglory plant response rating: 125 g ai/ha; for Plant response rating, Morningglory: 500 g ai/ha
Procedure, shortened: as §2

pigweed [17] = test: Test A postemergence; assay type: in vivo, Amaranthus retroflexus; conditions: 0 to 100 scale where 0 is no effect and 100 is complete control; for Pigweed plant response rating: 125 g ai/ha; for Plant response rating, Pigweed: 500 g ai/ha
Procedure, shortened: as §2

[18] = 0 to 100 scale where 0 is no effect and 100 is complete control
[19] = 125 g ai/ha, 0 to 100 scale where 0 is no effect and 100 is complete control

Row | Structure (SMILES) | Plant response rating, Rice (rice) | Plant response rating, Barnyardgrass (barnyardgrass [1]) | Foxtail, Giant plant response rating (giant foxtail [2]; [18]) | Morningglory plant response rating (0 to 100 scale) (morningglory [3]) | Morningglory plant response rating (morningglory [3]) | Crabgrass, Large plant response rating (large (Lg) crabgrass [4]; [18]) | Wheat plant response rating (0 to 100 scale) (wheat [5]) | Wheat plant response rating (wheat [5]) | Wheat plant response rating (wheat [6]) | Plant response rating, Wheat (wheat [6]) | Velvetleaf plant response rating (0 to 100 scale) (velvetleaf [7]) | Velvetleaf plant response rating (velvetleaf [7]) | Pigweed plant response rating (0 to 100 scale) (pigweed [8]) | Pigweed plant response rating (pigweed [8]) | Velvetleaf plant response rating (velvetleaf [9]) | Plant response rating, Velvetleaf (velvetleaf [9]) | Barnyardgrass plant response rating (barnyardgrass [10]) | Plant response rating, Barnyardgrass (barnyardgrass [10]) | Corn plant response rating (corn [11]) | Plant response rating, Corn (corn [11]) | further results
1 | N#Cc1ccc(Oc2ncc(Cl)cn2)c(-n2cc(Br)cn2)c1 [Compound 213] | 0 | 0 | 100 | 0 | 10 | 100 | 0 | 0 | 0 | 0 | 0 | 0 | 50 | 100 | 10 | 20 | 0 | 10 | 0 | 30 | Foxtail, Giant plant response rating (0 to 100 scale) (giant foxtail [2]; 125 g ai/ha): 20; Crabgrass, Large plant response rating (0 to 100 scale) (large (Lg) crabgrass [4]; 125 g ai/ha): 10; Corn plant response rating (0 to 100 scale) (corn [12]; 125 g ai/ha): 0; Corn plant response rating (corn [12]; [18]): 0; Barnyardgrass plant response rating (0 to 100 scale, 0 is no effect, 100 is complete control) (barnyardgrass [13]; 125 g ai/ha): 0; Barnyardgrass plant response rating (barnyardgrass [13]; [18]): 10; Foxtail, Giant plant response rating (giant foxtail [14]): 10; Plant response rating, Foxtail, Giant (giant foxtail [14]): 30; Plant response rating, Ducksalad (Heteranthera limosa): 0; Plant response rating, Sedge, Umbrella (sedge, umbrella): 70; Crabgrass, Large plant response rating (large (Lg) crabgrass [15]): 20; Plant response rating, Crabgrass, Large (large (Lg) crabgrass [15]): 70; Morningglory plant response rating (morningglory [16]): 20; Plant response rating, Morningglory (morningglory [16]): 30; Pigweed plant response rating (pigweed [17]): 100; Plant response rating, Pigweed (pigweed [17]): 100
2 | FC(F)(F)c1cnn(-c2c(Cl)cccc2Oc2ncc(Br)cn2)c1 [Compound 168] | 30 | 0 | 100 | 20 | 80 | 100 | 20 | 20 | 10 | 50 | 70 | 90 | 100 | 100 | 90 | 100 | 50 | 90 | 20 | 30 | Plant response rating, Foxtail, Giant (giant foxtail [2]; [19]): 100; Plant response rating, Crabgrass, Large (large (Lg) crabgrass [4]; [19]): 100; Plant response rating, Corn (corn [12]; [19]): 0; Corn plant response rating (corn [12]; [18]): 20; Plant response rating, Barnyardgrass (barnyardgrass [13]; [19]): 50; Barnyardgrass plant response rating (barnyardgrass [13]; [18]): 80; Foxtail, Giant plant response rating (giant foxtail [14]): 70; Plant response rating, Foxtail, Giant (giant foxtail [14]): 90; Plant response rating, Ducksalad (Heteranthera limosa): 90; Plant response rating, Sedge, Umbrella (sedge, umbrella): 80; Crabgrass, Large plant response rating (large (Lg) crabgrass [15]): 70; Plant response rating, Crabgrass, Large (large (Lg) crabgrass [15]): 90; Morningglory plant response rating (morningglory [16]): 50; Plant response rating, Morningglory (morningglory [16]): 100; Pigweed plant response rating (pigweed [17]): 100; Plant response rating, Pigweed (pigweed [17]): 100
